Assay results from US9302999B2, “Substituted triazoles as herbicides” (E. I. DU PONT DE NEMOURS AND COMPANY, priority 2012, dated 2016).

Key:
[1] = test system: pigweed (Amaranthus retroflexus); assay: Test A pre-/postemergence: pigweed; type: in vivo
How it was run: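 Compounds, formulated with surfactant in non-phytotoxic solvent, were applied as a directed soil spray preemergence and as postemergence sprays to 2–10 cm, one- to two-leaf seedlings grown in loam soil blended with sand; visual injury, 0–100, assessed ~10 days post-treatment against untreated controls.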

rice (Oryza sativa) = assay: Test B flooded paddy: rice; type: in vivo; conditions: Flood; 250 g ai/ha; applied to paddy water at 2-leaf stage; visually evaluated after 13 to 15 days
How it was run: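 Flooded-pot test: compound dosed into 3 cm of standing water above soil when plants had two leaves. Visual control ratings (0–100) versus untreated plants after 13–15 d.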

[2] = test system: blackgrass (Alopecurus myosuroides); assay: Test C pre-/postemergence: blackgrass; type: in vivo
How it was run: (§1)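 Preemergence on seeds in loam/sand, postemergence on 2–18 cm (1–4-leaf) plants in peat-based medium; compounds in non-phytotoxic solvent with surfactant. After 13–15 days in greenhouse, visual rating versus controls, 0 (no effect) to 100 (complete control).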

[3] = test system: winter wheat (Triticum aestivum); assay: Test C pre-/postemergence: winter wheat; type: in vivo
How it was run: as §1

wild oat (Avena fatua) = assay: Test C pre-/postemergence: wild oat; type: in vivo; conditions: Postemergence
How it was run: as §1

[4] = test system: galium (catchweed bedstraw, Galium aparine); assay: Test C pre-/postemergence: galium; type: in vivo
How it was run: as §1

[5] = test system: morningglory (Ipomoea coccinea); assay: Test C pre-/postemergence: morningglory; type: in vivo
How it was run: as §1

[6] = test system: nutsedge, yellow (yellow nutsedge, Cyperus esculentus); assay: Test C pre-/postemergence: nutsedge, yellow; type: in vivo
How it was run: as §1

[7] = test system: pigweed (Amaranthus retroflexus); assay: Test C pre-/postemergence: pigweed; type: in vivo
How it was run: as §1

[8] = test system: ragweed (common ragweed, Ambrosia elation); assay: Test C pre-/postemergence: ragweed; type: in vivo
How it was run: as §1

Barnyardgrass = assay: Test C preemergence: barnyardgrass; type: in vivo, Echinochloa crus-galli
[9] = Postemergence, 31 g ai/ha, scale 0 to 100 (0 no effect, 100 complete control)
[10] = Postemergence, 62 g ai/ha, scale 0 to 100 (0 no effect, 100 complete control)
[11] = Postemergence, 125 g ai/ha, scale 0 to 100, 0 no effect, 100 complete control
[12] = Preemergence, 31 g ai/ha, scale 0 (no effect) to 100 (complete control)
[13] = Preemergence, 62 g ai/ha, scale of 0 to 100, 0 is no effect, 100 is complete control
[14] = Preemergence, 125 g ai/ha, scale 0 to 100, 0 no effect, 100 complete control
[15] = Preemergence, 250 g ai/ha, scale 0 to 100, 0 no effect, 100 complete control
[16] = Postemergence, 250 g ai/ha, scale 0 to 100 (0 no effect, 100 complete control)
[17] = 125 g ai/ha, scale 0 to 100, 0 no effect, 100 complete control

CCCc1nn(-c2ccc(F)c(F)c2)nc1Oc1ccnc(C(F)(F)F)c1 [Compound 172]
Plant response rating, Pigweed ([1]; Postemergence, 125 g ai/ha, 0 to 100 scale, 0 is no effect, 100 is complete control): 100
Pigweed plant response rating ([1]; Postemergence, 500 g ai/ha, 0 to 100 scale, 0 is no effect, 100 is complete control): 100
Plant response rating, Pigweed ([1]; Preemergence, 125 g ai/ha, 0 to 100 scale where 0 is no effect and 100 is complete control): 100
Plant response rating, Pigweed ([1]; Preemergence, 500 g ai/ha, 0 to 100 scale (0 no effect, 100 complete control)): 100
Plant response rating, Rice (0 to 100 scale, 0 is no effect, 100 is complete control) (rice (Oryza sativa)): 50
Plant response rating, Blackgrass [2, 9]: 10
Plant response rating, Blackgrass [2, 10]: 25
Plant response rating, Blackgrass [2, 11]: 60
Plant response rating, Blackgrass ([2]; Postemergence, 250 g ai/ha, scale 0 to 100): 60
Plant response rating, Blackgrass [2, 12]: 90
Plant response rating, Blackgrass [2, 13]: 95
Plant response rating, Blackgrass [2, 14]: 95
Plant response rating, Blackgrass [2, 15]: 95
Plant response rating, Wheat [3, 9]: 10
Plant response rating, Wheat [3, 10]: 20
Plant response rating, Wheat [3, 11]: 25
Plant response rating, Wheat [3, 16]: 30
Plant response rating, Wheat [3, 12]: 15
Plant response rating, Wheat [3, 13]: 40
Plant response rating, Wheat [3, 14]: 45
Plant response rating, Wheat [3, 15]: 45
Plant response rating, Oat, Wild (wild oat (Avena fatua); 31 g ai/ha, scale 0 to 100 (0 no effect, 100 complete control)): 15
Plant response rating, Oat, Wild (wild oat (Avena fatua); 62 g ai/ha, scale 0 to 100 (0 no effect, 100 complete control)): 20
Plant response rating, Oat, Wild (wild oat (Avena fatua); [17]): 45
Plant response rating, Oat, Wild (wild oat (Avena fatua); 250 g ai/ha, scale 0 to 100 (0 no effect, 100 complete control)): 80
Plant response rating, Galium [4, 9]: 90
Plant response rating, Galium [4, 10]: 90
Plant response rating, Galium [4, 11]: 90
Plant response rating, Galium [4, 16]: 90
Plant response rating, Galium [4, 12]: 80
Plant response rating, Galium [4, 13]: 100
Plant response rating, Galium [4, 14]: 100
Plant response rating, Galium [4, 15]: 100
Plant response rating, Morningglory [5, 9]: 65
Plant response rating, Morningglory [5, 10]: 80
Plant response rating, Morningglory [5, 16]: 80
Plant response rating, Morningglory [5, 12]: 30
Plant response rating, Morningglory [5, 13]: 35
Plant response rating, Morningglory [5, 14]: 55
Plant response rating, Morningglory [5, 15]: 70
Plant response rating, Nutsedge, Yellow [6, 9]: 10
Plant response rating, Nutsedge, Yellow [6, 10]: 10
Plant response rating, Nutsedge, Yellow [6, 11]: 15
Plant response rating, Nutsedge, Yellow [6, 16]: 15
Plant response rating, Nutsedge, Yellow [6, 12]: 0
Plant response rating, Nutsedge, Yellow [6, 13]: 5
Plant response rating, Nutsedge, Yellow [6, 14]: 5
Plant response rating, Nutsedge, Yellow [6, 15]: 5
Plant response rating, Pigweed [7, 9]: 98
Plant response rating, Pigweed [7, 10]: 98
Plant response rating, Pigweed [7, 11]: 98
Plant response rating, Pigweed [7, 16]: 98
Plant response rating, Pigweed [7, 12]: 100
Plant response rating, Pigweed [7, 13]: 100
Plant response rating, Pigweed [7, 14]: 100
Plant response rating, Pigweed [7, 15]: 100
Plant response rating, Ragweed [8, 9]: 75
Plant response rating, Ragweed [8, 10]: 75
Plant response rating, Ragweed [8, 11]: 80
Plant response rating, Ragweed [8, 16]: 80
Plant response rating, Ragweed [8, 12]: 35
Plant response rating, Ragweed [8, 13]: 40
Plant response rating, Ragweed [8, 14]: 80
Plant response rating, Ragweed [8, 15]: 85
Plant response rating, Barnyardgrass (Barnyardgrass; 31 g ai/ha, scale 0 (no effect) to 100 (complete control)): 85
Plant response rating, Barnyardgrass (Barnyardgrass; 62 g ai/ha, scale of 0 to 100, 0 is no effect, 100 is complete control): 98
Plant response rating, Barnyardgrass (Barnyardgrass; [17]): 100
